Tested on: 991263-137-R1-J2-PDC complex spheroid viability
Experiment: Anticancer human tumor 991263-137-R1-J2-PDC patient-derived colon adenocarcinoma cell line growth inhibition [POLQ]
Conditions: for IC50: curve of first compound; for viability, T/C: stronger effect = lower value
Protocol: Multicellular complex tumor spheroid response to Polymerase (POL) inhibitors (novobiocin, ART-558, RP6685) in combination with a variety of drugs and investigational agents in selected tumor cell lines
The POL inhibitors (novobiocin, ART-558, and RP6685) were evaluated both individually and in combination with standard of care and investigational anticancer small molecules within a complex spheroid model of solid tumors. . Complex spheroids include a stromal component modeled by human endothelial cells (HUVEC) and fibroblasts modeled by human mesenchymal stem cells (MSCs). The concentration ranges selected for each drug and investigational agent were based upon clinically achievable concentrations if the clinical Cmax of the agent was known.
Compounds. The drugs and investigational agents: novobiocin (NSC847541), ART-558 (NSC835418), RP-6685 (NSC848927), peposertib (NSC802822), ceralasertib (NSC780249), elimusertib (NSC800525), camonsertib (NSC841442), AZD-1390 (NSC803789), olaparib (NSC753686), talazoparib (NSC767125), rucaparib (NSC756644), sotorasib (NSC818433), MRTX-1133 (NSC836407), SN-38 (NSC673596), topotecan (NSC609699), epotoside (NSC141540), doxorubicin (NSC123127), gemcitabine (NSC613327), 5-fluorouracil (NSC19893), paclitaxel (NSC125973), vemurafenib (NSC761431), MSA-2 (NSC828583), SN-011 (NSC837082), adavosertib (NSC754352), prexasertib (NSC758257), carboplatin (NSC241240) and oxaliplatin (NSC266046), were obtained from the National Cancer Institute (NCI) Developmental Therapeutics Program Chemical Repository (21). The FDA-approved anticancer drug set is available from the Developmental Therapeutics Program at https://dtp.cancer.gov/organization/dscb/obtaining/. […] The stock solutions were prepared in dimethyl sulfoxide (DMSO, Sigma-Aldrich, St. Louis, MO, cat. D2650), except for the platinum compounds which were prepared in saline (Quality Biological, Gaithersburg, MD, cat. 114-055-101), at 800-fold the tested concentration and stored at -70 degrees C prior to their use. All drugs and investigational agents were tested over a range starting from a high concentration at or near the clinical Cmax and decreasing in half-log increments. If the clinical Cmax for an agent had not been determined, the highest concentration tested was 10 microM, except for SN-38, which was tested at a high concentration of 1 microM.
Cell Culture. All cells were maintained in an incubator at 37 degrees C and 5% CO2 with 95% humidity. The PDC lines were cultured according to standard operating procedures established by the NCI PDMR (https://pdmr.cancer.gov). Table 3 of the manuscript, lists the cell lines along with the number of the three cell types plated to form the mct-spheroids and media for tumor cell growth. After thawing, all PDC lines, except 997537-175-T-J1-PDC and 415267-285-R-J2-PDC, were cultured in Matrigel-coated flasks prepared with a working solution of 1X Ham's F-12 nutrient mix, without supplementation (Thermo Fisher Scientific, cat. 11765054), 100 U/mL penicillin-streptomycin (Thermo Fisher Scientific, cat. 15140122), and 2.5% Matrigel (Corning Inc., Corning, NY, cat. 354248) for the first three passages. The two PDC lines 997537-175-T-J1-PDC and 415267-285-R-J2-PDC were cultured on uncoated flasks. The 857933-349-R-J2-PDC line was cultured in 6C/Colon 1B media containing advanced DMEM/F-12 (Thermo Fisher Scientific, cat. 12634028), 10 mM HEPES (Thermo Fisher Scientific, cat. 15630080), 1X GlutaMAX supplement (Thermo Fisher Scientific, cat. 35050061), 0.1 mg/mL primocin (InvivoGen, San Diego, CA, cat. ant-pm-2), 10% defined fetal bovine serum, heat inactivated (HyClone Laboratories Inc., Logan, UT, cat. SH30070.03HI), 50% L-WRN conditioned media (ATCC, cat. CRL-3276), 1.25 mM N-Acetyl-L-cysteine (Sigma-Aldrich, cat. A9165), 10 mM nicotinamide (Sigma-Aldrich, cat. N0636), 1X B-27 supplement (Thermo Fisher Scientific, cat. 17504044), 1X N-2 supplement (Thermo Fisher Scientific, cat. […]
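Also: spheroids exposed to compounds for 7 days before readout.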
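For viability, T/C in this document: 100% = DMSO vehicle control viability.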

Which IC50 (second compound 0.0316 µM) does the source give for `C#Cc1c(F)ccc2cc(O)cc(-c3ncc4c(N5CC6CCC(C5)N6)nc(OCC56CCCN5CC(F)C6)nc4c3F)c12` (configuration not stated) + Nc1ccc(C#CCN(C(=O)Cc2ncc(C(F)(F)F)cc2C(F)(F)F)c2ccc(F)cc2)nn1 here?
The IC50 was over 10 µM.

And the IC50 (second compound 0.1 µM)?
The IC50 was over 10 µM.

What about the IC50 (second compound 0.316 µM) of the same compound?
Its IC50 is over 10 µM.

And the IC50 (second compound 1 µM)?
The IC50 was over 10 µM.

What about the IC50 (second compound 3.16 µM) of the same compound?
The IC50 was over 10 µM.

And the IC50 (second compound 10 µM)?
Its IC50 is over 10 µM.

And the viability, T/C (second compound 0.0316 µM, first compound 0.0316 µM)?
Its viability, T/C is 104%.

What about the viability, T/C (second compound 0.0316 µM, first compound 0.1 µM) of the same compound?
Its viability, T/C is 111%.

What about the viability, T/C (second compound 0.0316 µM, first compound 0.316 µM) of the same compound?
Its viability, T/C is 99.6%.

And the viability, T/C (second compound 0.0316 µM, first compound 1 µM)?
Its viability, T/C is 102%.

And the viability, T/C (second compound 0.0316 µM, first compound 3.16 µM)?
Its viability, T/C is 105%.

And the viability, T/C (second compound 0.0316 µM, first compound 10 µM)?
The viability, T/C was 88%.

What about the viability, T/C (second compound 0.1 µM, first compound 0.0316 µM) of the same compound?
Its viability, T/C is 103%.

And the viability, T/C (second compound 0.1 µM, first compound 0.1 µM)?
Its viability, T/C is 108%.

And the viability, T/C (second compound 0.1 µM, first compound 0.316 µM)?
Its viability, T/C is 96.5%.

What about the viability, T/C (second compound 0.1 µM, first compound 1 µM) of the same compound?
Its viability, T/C is 102%.

And the viability, T/C (second compound 0.1 µM, first compound 3.16 µM)?
Its viability, T/C is 103%.

And the viability, T/C (second compound 0.1 µM, first compound 10 µM)?
Its viability, T/C is 92%.

And the viability, T/C (second compound 0.316 µM, first compound 0.0316 µM)?
Its viability, T/C is 103%.

And the viability, T/C (second compound 0.316 µM, first compound 0.1 µM)?
Its viability, T/C is 99.8%.

What about the viability, T/C (second compound 0.316 µM, first compound 0.316 µM) of the same compound?
Its viability, T/C is 99.8%.

And the viability, T/C (second compound 0.316 µM, first compound 1 µM)?
Its viability, T/C is 102%.

And the viability, T/C (second compound 0.316 µM, first compound 3.16 µM)?
The viability, T/C was 105%.

And the viability, T/C (second compound 0.316 µM, first compound 10 µM)?
The viability, T/C was 108%.

And the viability, T/C (second compound 1 µM, first compound 0.0316 µM)?
Its viability, T/C is 97.5%.

What about the viability, T/C (second compound 1 µM, first compound 0.1 µM) of the same compound?
Its viability, T/C is 95.2%.

What about the viability, T/C (second compound 1 µM, first compound 0.316 µM) of the same compound?
Its viability, T/C is 107%.

And the viability, T/C (second compound 1 µM, first compound 1 µM)?
Its viability, T/C is 86.8%.

And the viability, T/C (second compound 1 µM, first compound 3.16 µM)?
Its viability, T/C is 106%.

And the viability, T/C (second compound 1 µM, first compound 10 µM)?
Its viability, T/C is 96.1%.

And the viability, T/C (second compound 3.16 µM, first compound 0.0316 µM)?
The viability, T/C was 102%.

And the viability, T/C (second compound 3.16 µM, first compound 0.1 µM)?
The viability, T/C was 105%.

And the viability, T/C (second compound 3.16 µM, first compound 0.316 µM)?
The viability, T/C was 104%.

What about the viability, T/C (second compound 3.16 µM, first compound 1 µM) of the same compound?
The viability, T/C was 112%.

What about the viability, T/C (second compound 3.16 µM, first compound 3.16 µM) of the same compound?
The viability, T/C was 123%.

What about the viability, T/C (second compound 3.16 µM, first compound 10 µM) of the same compound?
The viability, T/C was 98.7%.

And the viability, T/C (second compound 10 µM, first compound 0.0316 µM)?
The viability, T/C was 100%.

What about the viability, T/C (second compound 10 µM, first compound 0.1 µM) of the same compound?
Its viability, T/C is 98.2%.

What about the viability, T/C (second compound 10 µM, first compound 0.316 µM) of the same compound?
The viability, T/C was 93.4%.

And the viability, T/C (second compound 10 µM, first compound 1 µM)?
Its viability, T/C is 101%.

And the viability, T/C (second compound 10 µM, first compound 3.16 µM)?
The viability, T/C was 87.6%.

What about the viability, T/C (second compound 10 µM, first compound 10 µM) of the same compound?
The viability, T/C was 80.4%.

Source: PubChem BioAssay AID1963828 (Molecular Pharmacology Branch, DTP, NCI, 2024)
